Target: Tyrosine-protein kinase BTK (Homo sapiens, UniProt Q06187)
Assay: Inhibition of human BTK-A using phosphorylated substrate in presence of ATP by microplate reader assay

Chain of Tyrosine-protein kinase BTK (Q06187 whole entry): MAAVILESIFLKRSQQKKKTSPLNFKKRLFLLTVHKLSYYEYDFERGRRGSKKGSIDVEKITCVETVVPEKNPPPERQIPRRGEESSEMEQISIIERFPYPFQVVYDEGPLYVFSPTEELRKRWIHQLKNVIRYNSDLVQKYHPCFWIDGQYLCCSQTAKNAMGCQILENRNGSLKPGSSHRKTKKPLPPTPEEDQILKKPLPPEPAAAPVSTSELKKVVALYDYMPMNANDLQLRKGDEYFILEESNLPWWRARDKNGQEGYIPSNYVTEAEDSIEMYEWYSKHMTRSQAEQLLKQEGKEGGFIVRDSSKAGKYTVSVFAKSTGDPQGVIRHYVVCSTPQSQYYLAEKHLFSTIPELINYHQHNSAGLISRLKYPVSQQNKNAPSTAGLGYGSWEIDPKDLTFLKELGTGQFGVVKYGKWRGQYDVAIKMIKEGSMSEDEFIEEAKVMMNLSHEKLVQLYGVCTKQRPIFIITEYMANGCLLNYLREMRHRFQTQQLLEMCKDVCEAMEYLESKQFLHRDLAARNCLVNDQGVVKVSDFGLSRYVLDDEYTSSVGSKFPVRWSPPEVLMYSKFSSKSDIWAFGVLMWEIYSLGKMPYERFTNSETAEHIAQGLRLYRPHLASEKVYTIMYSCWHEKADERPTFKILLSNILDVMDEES

Row | Structure (SMILES) | IC50
1 | Nc1nc(-c2cccc(-n3ccc4cc(C5CC5)cc(F)c4c3=O)c2CO)c2cc(C3=CCNCC3)[nH]c2n1 | 0.65 nM
2 | CN1CCN(C(=O)N2CC=C(c3cc4c(-c5cccc(-n6ccc7cc(C8CC8)cc(F)c7c6=O)c5CO)nc(N)nc4[nH]3)CC2)CC1 | 0.65 nM
3 | CC(=O)N1CC=C(c2cc3c(-c4cccc(-n5ccc6cc(C7CC7)cc(F)c6c5=O)c4CO)nc(N)nc3[nH]2)CC1 | 0.71 nM
4 | Nc1nc(-c2cccc(-n3ccc4cc(C5CC5)cc(F)c4c3=O)c2CO)c2cc(-c3ccccc3)[nH]c2n1 | 14 nM
5 | Cc1cc2c(-c3cccc(-n4ccc5cc(C6CC6)cc(F)c5c4=O)c3CO)nc(N)nc2[nH]1 | 49 nM
6 | Nc1nc(-c2cccc(-n3ccc4cc(C5CC5)cc(F)c4c3=O)c2CO)c2cc(C3=CCCCC3)[nH]c2n1 | 2.6 nM
